Assay results from patent publication US20020004209A1, “Use of SLIM3 for binding to molecules” (Schering Aktiengesellschaft Patents, priority 1999, published 2002).

Target: T1, androgen receptor (Homo sapiens, UniProt P10275)
T1 construct: expressed in transfected cells; host or cells: 293 cells
T1 sequence (P10275 1-920): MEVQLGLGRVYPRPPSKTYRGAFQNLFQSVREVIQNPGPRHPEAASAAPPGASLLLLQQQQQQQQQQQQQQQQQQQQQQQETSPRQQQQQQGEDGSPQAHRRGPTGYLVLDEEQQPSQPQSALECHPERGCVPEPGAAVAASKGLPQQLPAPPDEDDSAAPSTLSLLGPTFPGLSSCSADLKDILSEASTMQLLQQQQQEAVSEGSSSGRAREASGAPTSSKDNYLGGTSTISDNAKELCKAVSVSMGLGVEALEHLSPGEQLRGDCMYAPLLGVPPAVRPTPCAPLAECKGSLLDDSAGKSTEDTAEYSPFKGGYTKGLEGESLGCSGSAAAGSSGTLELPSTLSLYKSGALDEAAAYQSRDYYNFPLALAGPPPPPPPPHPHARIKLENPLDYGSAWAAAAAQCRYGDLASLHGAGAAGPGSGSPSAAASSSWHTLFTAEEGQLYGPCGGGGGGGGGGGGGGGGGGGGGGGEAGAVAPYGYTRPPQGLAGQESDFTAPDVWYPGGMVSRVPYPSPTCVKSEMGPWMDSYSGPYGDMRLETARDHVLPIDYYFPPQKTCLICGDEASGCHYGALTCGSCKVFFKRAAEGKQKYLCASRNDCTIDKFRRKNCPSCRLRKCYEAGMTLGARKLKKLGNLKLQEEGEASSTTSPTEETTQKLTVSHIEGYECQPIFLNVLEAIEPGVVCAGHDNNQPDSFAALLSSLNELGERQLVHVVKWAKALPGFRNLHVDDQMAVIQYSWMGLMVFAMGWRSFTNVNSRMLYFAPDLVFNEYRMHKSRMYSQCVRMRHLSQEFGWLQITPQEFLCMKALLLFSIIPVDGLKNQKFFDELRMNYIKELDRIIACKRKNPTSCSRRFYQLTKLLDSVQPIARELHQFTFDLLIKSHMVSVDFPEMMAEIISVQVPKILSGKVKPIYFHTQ
T1 sequence (Q14192 1-279 partner): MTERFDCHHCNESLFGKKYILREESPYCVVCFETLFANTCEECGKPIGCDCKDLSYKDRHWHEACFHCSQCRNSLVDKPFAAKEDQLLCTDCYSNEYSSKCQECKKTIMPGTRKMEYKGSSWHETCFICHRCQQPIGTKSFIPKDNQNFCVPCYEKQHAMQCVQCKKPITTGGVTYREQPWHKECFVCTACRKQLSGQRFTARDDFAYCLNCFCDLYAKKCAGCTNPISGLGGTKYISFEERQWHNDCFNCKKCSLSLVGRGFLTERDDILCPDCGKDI
Experiment: androgen receptor co-activation, MMTV-LUC or proteasin-Luc reporter, transient transfection
Assay type: cell-based
Conditions: 293 cells; androgen receptor-expression-plasmid co-transfected

## C[C@]1(O)CC[C@H]2[C@@H]3CCC4=CC(=O)CCC4=C3C=C[C@@]21C [R1881, reference compound]
  transactivation of the reporter gene: transactivated
